Consider 1 compound from publication PMC4527730, “A Pan-GTPase Inhibitor as a Molecular Probe” (PLoS ONE, 2015).

This data set in a line: Stability in PBS. The data set is classed as physicochemical. The settings on record: 23 °C, after 48 hours. How it is done: page 7: conclusion, the available data support the idea that compound CID1067700 has non-classical competitive character. […] Solubility was measured in phosphate buffered saline (PBS) at room temperature (23 °C). PBS by definition is 137 mM NaCl, 2.7 mM KCl, 10 mM sodium phosphate dibasic, 2 mM potassium phosphate [monobasic and a pH of 7.4. Detection was based on UV absorbance. […] Solubility was also assessed in the each of the four media used in the individual assays. […] Table 1S. […] Stability, depicted as closed circles in the graph, was assessed at room temperature (23 °C) in PBS (no antioxidants or other protectants and DMSO concentration below 0.1%). Stability data is depicted in Fig. S8 showing the loss of compound with time over a 48 h period with a minimum of 6 time points and providing the percent remaining compound at end of the 48 h period. Under these conditions, 77% of 1 remains after 48 hours. The degradation has not been further characterized.

The compound `CC1(C)Cc2c(sc(NC(=S)NC(=O)c3ccccc3)c2C(=O)O)CO1` [Compound 1] came in with a compound remaining of 77%.
